# Test results reported in patent US20090232849A1 (priority 2005, published 2009).
# Several values for one entry are separate records, joined by “and”; a condition that tells them apart may be missing. Identical values can stand only once. Entries after “also recorded” stand apart in the source; their conditions may differ.
# System: TLT tumor
# Set-up: species or system mice
# Conditions: mouse, in vivo
smiles,measurement,setting,value
O=P1(N(CCCl)CCCl)NCCCO1 (centres unmarked) [cyclophosphamide],regrowth delay to double tumour diameter,,7.73 ± 0.38 days and 7.7 ± 0.4 days
same,effect of cyclophosphamide alone on regrowth delay,50 mg/kg,No difference in regrowth delay; also recorded: just below the efficacy threshold
